Source: patent publication US20150197550A1 (UNIVERSITY OF ULSTER, priority 2012, published 2015)
Square brackets hold non-standard residues; d marks the D form. Peptide text beside a SMILES is read from it.

Assays:
[1] = Stability on incubation with mouse plasma for 8 h (RP-HPLC peak height); format: in vitro ADME; details: mouse, plasma
Description: The samples were then separated on RP-HPLC and the peak height compared to the value at time=0 hours.

[2] = human, in vivo; cited from earlier work

| metabolised at 8 h [1] [%] | Compound | half-life [2] |
| --- | --- | --- |
| 40.1 | CSCC[C@H](NC(=O)[C@H](Cc1ccc(O)cc1)NC(=O)[C@H](CCCCN)NC(=O)[C@H](CO)NC(=O)[C@H](Cc1ccc(O)cc1)NC(=O)[C@H](CC(=O)O)NC(=O)[C@H](CO)NC(=O)[C@@H](NC(=O)[C@H](Cc1ccccc1)NC(=O)[C@@H](NC(=O)CNC(=O)[C@H](CCC(=O)O)NC(=O)[C@@H](C)NC(=O)[C@@H](N)Cc1c[nH]cn1)[C@@H](C)O)[C@@H](C)O)C(=O)N[C@@H](CC(=O)O)C(=O)N[C@@H](CC(N)=O)C(=O)N[C@@H](CCCNC(=N)N)C(=O)N[C@@H](CCCNC(=N)N)C(=O)N[C@@H](C)C(=O)N[C@@H](CCCCN)C(=O)N[C@@H](CC(=O)O)C(=O)N[C@@H](Cc1ccccc1)C(=O)N[C@H](C(=O)N[C@@H](CCC(N)=O)C(=O)N[C@@H](Cc1c[nH]c2ccccc12)C(=O)N[C@@H](CC(C)C)C(=O)N[C@@H](CCSC)C(=O)N[C@@H](CC(N)=O)C(=O)N[C@H](C(=O)O)[C@@H](C)O)C(C)C [(D-Ala^2) dogfish glucagon, (D-A^2) dogfish glucagon] (H-H[dA]EGTFTSDYSKYMDNRRAKDFVQWLMNT-OH; N-terminus and C-terminus assumed) |  |
| 38.8 | CSCC[C@H](NC(=O)[C@H](Cc1ccc(O)cc1)NC(=O)[C@H](CCCCN)NC(=O)[C@H](CO)NC(=O)[C@H](Cc1ccc(O)cc1)NC(=O)[C@H](CC(=O)O)NC(=O)[C@H](CO)NC(=O)[C@@H](NC(=O)[C@H](Cc1ccccc1)NC(=O)[C@@H](NC(=O)CNC(=O)[C@H](CCC(=O)O)NC(=O)[C@H](CO)NC(=O)[C@@H](N)Cc1c[nH]cn1)[C@@H](C)O)[C@@H](C)O)C(=O)N[C@@H](CC(=O)O)C(=O)N[C@@H](CC(N)=O)C(=O)N[C@@H](CCCNC(=N)N)C(=O)N[C@@H](CCCNC(=N)N)C(=O)N[C@@H](C)C(=O)N[C@@H](CCCCN)C(=O)N[C@@H](CC(=O)O)C(=O)N[C@@H](Cc1ccccc1)C(=O)N[C@H](C(=O)N[C@@H](CCC(N)=O)C(=O)N[C@@H](Cc1c[nH]c2ccccc12)C(=O)N[C@@H](CC(C)C)C(=O)N[C@@H](CCSC)C(=O)N[C@@H](CC(N)=O)C(=O)N[C@H](C(=O)O)[C@@H](C)O)C(C)C [dogfish glucagon, Dogfish glucagon (1-29)] (H-HSEGTFTSDYSKYMDNRRAKDFVQWLMNT-OH; N-terminus and C-terminus assumed) |  |
|  | Glucagon-like peptide-1 [GLP-1] | less than two |

| Compound | metabolised at 8 h [1] [%] | half-life [2] |
| --- | --- | --- |
| CSCC[C@H](NC(=O)[C@H](Cc1ccc(O)cc1)NC(=O)[C@H](CCCCN)NC(=O)[C@H](CO)NC(=O)[C@H](Cc1ccc(O)cc1)NC(=O)[C@H](CC(=O)O)NC(=O)[C@H](CO)NC(=O)[C@@H](NC(=O)[C@H](Cc1ccccc1)NC(=O)[C@@H](NC(=O)CNC(=O)[C@H](CCC(=O)O)NC(=O)[C@@H](C)NC(=O)[C@@H](N)Cc1c[nH]cn1)[C@@H](C)O)[C@@H](C)O)C(=O)N[C@@H](CC(=O)O)C(=O)N[C@@H](CC(N)=O)C(=O)N[C@@H](CCCNC(=N)N)C(=O)N[C@@H](CCCNC(=N)N)C(=O)N[C@@H](C)C(=O)N[C@@H](CCCCN)C(=O)N[C@@H](CC(=O)O)C(=O)N[C@@H](Cc1ccccc1)C(=O)N[C@H](C(=O)N[C@@H](CCC(N)=O)C(=O)N[C@@H](Cc1c[nH]c2ccccc12)C(=O)N[C@@H](CC(C)C)C(=O)N[C@@H](CCSC)C(=O)N[C@@H](CC(N)=O)C(=O)N[C@H](C(=O)N1CCC[C@H]1C(=O)N[C@@H](CO)C(=O)N[C@@H](CO)C(=O)NCC(=O)N[C@@H](C)C(=O)N1CCC[C@H]1C(=O)N1CCC[C@H]1C(=O)N1CCC[C@H]1C(=O)N[C@@H](CO)C(N)=O)[C@@H](C)O)C(C)C [(D-A^2) dogfish glucagon exendin, (D-A^2) dogfish glucagon exendin end] (H-H[dA]EGTFTSDYSKYMDNRRAKDFVQWLMNTPSSGAPPPS-NH2; N-terminus assumed) | 18.3 |  |
